Tests used:
Format in all cases: in vivo
[1] = tested on: Diamond Back Moth (Plutella xylostella); assay: B.1 Diamond Back Moth (Plutella xylostella), cabbage leaf dip; details: foliar, 500 ppm, 3rd instar larvae on dipped cabbage leaves, 72 hours after treatment, in comparison with untreated controls, read-out: mortality
Summary of the method: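 Cabbage leaves dipped in compound in 1:1 water:acetone with 0.01% Kinetic HV surfactant, air-dried, then infested with ten 3rd-instar larvae on moist filter paper. Mortality scored at 72 h after treatment; feeding damage rated on a 0-100% scale.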

[2] = tested on: Boll Weevil (Anthonomus grandis); assay: B.3 Boll Weevil (Anthonomus grandis), microtiter plate insect diet; details: 120 h, 800 ppm, sprayed onto insect diet, 5 days, in comparison with untreated controls, read-out: mortality (egg and larval)
Summary of the method: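 Compounds in 25% DMSO/water sprayed at several concentrations onto insect diet in microtiter wells holding 5–10 A. grandis eggs, two replicates. Plates kept 5 days at about 25±1 °C and 75±5% RH. Egg and larval mortality scored visually.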

[3] = tested on: Mediterranean Fruitfly (Ceratitis capitata); assay: B.6 Mediterranean Fruitfly (Ceratitis capitata), microtiter plate insect diet; details: 120 h, 800 ppm, sprayed onto insect diet, 5 days, in comparison with untreated controls, read-out: mortality (egg and larval)
Summary of the method: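 Insect diet with 50-80 C. capitata eggs sprayed with compounds formulated in 75% water/25% DMSO, at different concentrations, two replications. Incubation at about 28±1° C and 80±5% relative humidity for 5 days, then egg and larval mortality assessed visually.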

[4] = tested on: Tobacco Budworm (Heliothis virescens); assay: B.7 Tobacco Budworm (Heliothis virescens) I, microtiter plate insect diet; details: 120 h, 800 ppm, sprayed onto insect diet, 5 days, in comparison with untreated controls, read-out: mortality (egg and larval)
Summary of the method: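 96-well plates with insect diet and 15-25 H. virescens eggs; compounds in 75% water/25% DMSO sprayed onto diet at several concentrations, two replicates. Plates held at about 28±1° C. and 80±5% relative humidity for 5 days, then egg and larval mortality scored visually.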

[5] = tested on: Green Peach Aphid (Myzus persicae); assay: B.9 Green Peach Aphid (Myzus persicae), sprayed bell pepper plants; details: 120 h, infested bell pepper plants sprayed, after 5 days, in comparison with untreated controls
Experimental: B.9 Green Peach Aphid (Myzus persicae)
The active compounds were formulated by a Tecan liquid handler in 100% cyclohexa none as a 10,000 ppm solution supplied in tubes. The 10,000 ppm solution was serially diluted in 100% cyclohexanone to make interim solutions. These served as stock solutions for which final dilutions were made by the Tecan in 50% acetone:50% water (v/v) into 5 or 10 ml glass vials. A nonionic surfactant (Kinetic®) was included in the solution at a volume of 0.01% (v/v). The vials were then inserted into an automated electrostatic sprayer equipped with an atomizing nozzle for application to plants/insects.
Bell pepper plants at the first true-leaf stage were infested prior to treatment by placing heavily infested leaves from the main colony on top of the treatment plants. Aphids were allowed to transfer overnight to accomplish an infestation of 30-50 aphids per plant and the host leaves were removed. The infested plants were then sprayed by an automated electrostatic plant sprayer equipped with an atomizing spray nozzle. The plants were dried in the sprayer fume hood, removed, and then maintained in a growth room under fluorescent lighting in a 24-hr photoperiod at about 25° C. and about 20-40% relative humidity. Aphid mortality on the treated plants, relative to mortality on untreated control plants, was determined after 5 days.

[6] = tested on: Yellow Fever Mosquito (Aedes aegypti); assay: whole plant or invertebrate; details: 48 h, freshly hatched larvae in tap water, 2 days, in comparison with untreated controls, read-out: mortality (larval)
Summary of the method: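 Freshly hatched A. aegypti larvae, 5–15 per well, were held in 200 μl tap water. Compounds formulated in 75:25 water:DMSO were sprayed at various concentrations, 2.5 μl per well by micro-atomizer, in two replicates.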

[7] = tested on: Orchid thrips (dichromothrips corbetti); assay: B.12 Orchid thrips (dichromothrips corbetti), floral-immersion technique; details: adult thrips on dipped orchid petals, 72 hours after treatment, in comparison with untreated controls
Summary of the method: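 Whole orchid flower petals were dipped in compound in 1:1 acetone:water with 0.01% v/v Kinetic HV, dried, and enclosed with about 20 adult thrips. They were held under continuous light at about 28° C. Live thrips were counted and percent mortality recorded at 72 hours.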

[8] = tested on: Silverleaf Whitefly (Bemisia argentifoli); assay: B.5 Silverleaf Whitefly (Bemisia argentifoli), sprayed cotton plants; details: 72 h, whitefly adults on sprayed cotton plants, 3 days after treatment, in comparison with untreated controls
Experimental: B.5 Silverleaf Whitefly (Bemisia argentifoli)
(§1) The active compounds were formulated by a Tecan liquid handler in 100% cyclohexanone as a 10,000 ppm solution supplied in tubes. The 10,000 ppm solution was serially diluted in 100% cyclohexanone to make interim solutions. These served as stock solutions for which final dilutions were made by the Tecan in 50% acetone:50% water (v/v) into 5 or 10 ml glass vials. A nonionic surfactant (Kinetic®) was included in the solution at a volume of 0.01% (v/v). The vials were then inserted into an automated electrostatic sprayer equipped with an atomizing nozzle for application to plants/insects.
Cotton plants at the cotyledon stage (one plant per pot) were sprayed by an automated electrostatic plant sprayer equipped with an atomizing spray nozzle. The plants were dried in the sprayer fume hood and then removed from the sprayer. Each pot was placed into a plastic cup and about 10 to 12 whitefly adults (approximately 3-5 days old) were introduced. The insects were collected using an aspirator and a nontoxic Tygon® tubing connected to a barrier pipette tip. The tip, containing the collected insects, was then gently inserted into the soil containing the treated plant, allowing insects to crawl out of the tip to reach the foliage for feeding. Cups were covered with a reusable screened lid. Test plants were maintained in a growth room at about 25° C. and about 20-40% relative humidity for 3 days, avoiding direct exposure to fluorescent light (24 hour photoperiod) to prevent trapping of heat inside the cup. Mortality was assessed 3 days after treatment, compared to untreated control plants.

[9] = tested on: Southern Armyworm (Spodoptera eridania), 2nd Instar Larvae; assay: B.10 Southern Armyworm (Spodoptera eridania), 2nd Instar Larvae, sprayed lima bean plants; details: 96 h, 300 ppm, larvae on sprayed lima bean plants, 4 days after treatment, in comparison with untreated controls, read-out: mortality
Experimental: B.10 Southern Armyworm (Spodoptera eridania), 2nd Instar Larvae
as §1
Lima bean plants (variety Sieva) were grown 2 plants to a pot and selected for treatment at the 1st true leaf stage. Test solutions were sprayed onto the foliage by an automated electrostatic plant sprayer equipped with an atomizing spray nozzle. The plants were dried in the sprayer fume hood and then removed from the sprayer. Each pot was placed into perforated plastic bags with a zip closure. About 10 to 11 armyworm larvae were placed into the bag and the bags zipped closed. Test plants were maintained in a growth room at about 25° C. and about 20-40% relative humidity for 4 days, avoiding direct exposure to fluorescent light (24 hour photoperiod) to prevent trapping of heat inside the bags. Mortality and reduced feeding were assessed 4 days after treatment, compared to untreated control plants.

Cc1cc(Br)cc(C)c1NC(=S)N/N=C/c1ccc2c(ccc3c2ncn3-c2ccc(OC(F)(F)F)cc2)c1 [C-4, 1-(4-bromo-2,6-dimethyl-phenyl)-3-[(E)-[3-[4-(trifluoromethoxy)phenyl]benzo[e]benzimidazol-7-yl]methyleneamino]thiourea]
≥ 75%: mortality at 500 ppm [1] | mortality at 800 ppm [2] | mortality at 800 ppm [3] | mortality at 800 ppm [4] | mortality at 800 ppm [5] | mortality at 800 ppm [6] | mortality at 500 ppm [7]

CCc1ccccc1NC(=S)N/N=C/c1ccc2c(c1)CCc1c-2cnn1-c1ccc(OC(F)(F)F)cc1 [C-19, 1-(2-ethylphenyl)-3-[[3-[4-(trifluoromethoxy)phenyl]-5,8-dihydro-4H-benzo[e]indazol-7-ylidene]methylimino]thiourea]
≥ 75%: mortality at 300 ppm [8]

FC(F)(F)Oc1ccc(-n2cnc3c4ccc(/C=N/NC(=S)Nc5ccccc5C(F)(F)F)cc4ccc32)cc1 [C-24, 1-[[3-[4-(trifluoromethoxy)phenyl]-9aH-benzo[e]benzimidazol-7-ylidene]methylimino]-3-[2-(trifluoromethyl)phenyl]isothiourea]
≥ 75%: mortality at 500 ppm [1] | mortality at 800 ppm [2] | mortality at 300 ppm [8] | mortality at 800 ppm [3] | mortality at 500 ppm [7]

COc1ccc(C)cc1NC(=S)N/N=C/c1ccc2c(ccc3c2ncn3-c2ccc(OC(F)(F)F)cc2)c1 [C-25, 1-(2-methoxy-5-methyl-phenyl)-3-[(E)-[3-[4-(trifluoromethoxy)phenyl]benzo [e]benzimidazol-7-yl]methyleneamino] thiourea]
≥ 75%: mortality at 800 ppm [2] | mortality at 800 ppm [3] | mortality at 800 ppm [5] | mortality at 300 ppm [9]

C/C(=N\NC(=S)Nc1c(C)cccc1C)c1ccc2c(ccc3c2ncn3-c2ccc(OC(F)(F)F)cc2)c1 [C-58, 1-(2,6-dimethylphenyl)-3-[(E)-1-[3-[4-(trifluoromethoxy)phenyl]benzo[e]benzimidazol-7-yl]ethylideneamino]thiourea]
≥ 75%: mortality at 500 ppm [1] | mortality at 800 ppm [2] | mortality at 800 ppm [3] | mortality at 800 ppm [4] | mortality at 800 ppm [5] | mortality at 300 ppm [9] | mortality at 800 ppm [6] | mortality at 500 ppm [7]

Cc1cccc(Cl)c1NC(=S)N/N=C/c1ccc2c(ccc3c2ncn3-c2ccc(SC(F)(F)F)cc2)c1 [C-74, 1-(2-chloro-6-methyl-phenyl)-3-[(E)-[3-[4-(trifluoromethylsulfanyl)phenyl]benzo[e]benzimidazol-7-yl]methyleneamino]thiourea]
≥ 75%: mortality at 500 ppm [1] | mortality at 800 ppm [2] | mortality at 300 ppm [8] | mortality at 800 ppm [3] | mortality at 800 ppm [4] | mortality at 300 ppm [9] | mortality at 800 ppm [6]

CCc1cccc(C)c1NC(=S)N/N=C/c1ccc2c(ccc3c2ncn3-c2ccc(C(F)(F)F)cc2)c1 [C-78, 1-(2-ethyl-6-methyl-phenyl)-3-[(E)-[3-[4-(trifluoromethyl)phenyl]benzo[e]benzimidazol-7-yl]methyleneamino] thiourea]
≥ 75%: mortality at 500 ppm [1] | mortality at 800 ppm [2] | mortality at 300 ppm [8] | mortality at 800 ppm [3] | mortality at 800 ppm [4] | mortality at 300 ppm [9] | mortality at 500 ppm [7]

Cc1cccc(Cl)c1NC(=S)N/N=C/c1ccc2c(ccc3c2ncn3-c2ccc(OC(F)(F)F)cc2)c1 [C-79, 1-(2-chloro-6-methyl-phenyl)-3-[(E)-[3-[4-(trifluoromethoxy)phenyl]benzo[e]benzimidazol-7-yl]methyleneamino] thiourea]
≥ 75%: mortality at 500 ppm [1] | mortality at 800 ppm [2] | mortality at 800 ppm [3] | mortality at 800 ppm [4] | mortality at 800 ppm [5] | mortality at 300 ppm [9] | mortality at 800 ppm [6] | mortality at 500 ppm [7]

CCc1cccc(C)c1NC(=S)N/N=C/c1ccc2c(ccc3c(-c4ccc(OC(F)(F)F)cc4)n(C)nc32)c1 [C-92, 1-(2-ethyl-6-methyl-phenyl)-3-[(E)-[2-methyl-3-[4-(trifluoromethoxy)phenyl]benzo[g]indazol-7-yl]methyleneamino] thiourea]
≥ 75%: mortality at 500 ppm [1] | mortality at 800 ppm [2] | mortality at 800 ppm [3] | mortality at 800 ppm [4] | mortality at 800 ppm [5] | mortality at 800 ppm [6] | mortality at 500 ppm [7]

O=C(N/N=C/c1ccc2c(ccc3c2ncn3-c2ccc(OC(F)(F)F)cc2)c1)Nc1ccccc1Cl [C-100, 3-(2-chlorophenyl)-1-[[3-[4-(trifluoromethoxy)phenyl]-8H-benzo[e]benzimidazol-7-ylidene]methylimino] isourea]
≥ 75%: mortality at 300 ppm [8]

Cc1cccc(C)c1NC(=S)N/N=C/c1ccc2c(ccc3c2ncn3-c2ccc(C(F)(F)F)cc2F)c1 [C-113, 1-(2,6-dimethylphenyl)-3-[[3-[2-fluoro-4-(trifluoromethyl)phenyl]-3aH-benzo[e]benzimidazol-7-ylidene]methylimino]thiourea]
≥ 75%: mortality at 800 ppm [2] | mortality at 800 ppm [3] | mortality at 800 ppm [4] | mortality at 800 ppm [5] | mortality at 800 ppm [6]

From patent US9497970B2, “Pesticide compounds” (priority 2013, dated 2016)
